Patent US11352360B2, “TGF-beta inhibitors” (Rigel Pharmaceuticals, Inc., priority 2015, dated 2022)

Legend:
[1] = system: GDF8 signaling (p-SMAD-3 Ser423/425); assay: AlphaScreen SureFire SMAD3 (p-Ser423/425) assay, GDF8-stimulated; format: cell-based; conditions: inhibition of GDF8 signaling, pSMAD, MPC11; read-out: GDF8 (GDF pSMAD (MPC11))
[2] = system: TGF-β signaling (p-SMAD-3 Ser423/425); assay: AlphaScreen SureFire SMAD3 (p-Ser423/425) assay, TGF-β-stimulated; format: cell-based; conditions: inhibition of TGF-β signaling, pSMAD, MPC-11

COc1ccc(-c2nc(N)sc2-c2ccc3[nH]ncc3c2)cc1 [Compound 157, 5-(1H-indazol-5-yl)-4-(4-methoxyphenyl)thiazol-2-amine] gave an IC50 [1] of 25.6 nM and an IC50 [2] of 160 nM.
